Where two headings read alike, the source gives them in different places.

The results in this text go back to patent publication US20220348590A1, “CYCLOOXYGENASE-2 INHIBITORS AND USES THEREOF” (The Board Institute, Inc., priority 2019, published 2022).

The target in this assay is T1, human recombinant COX2 (hCOX2) (UniProt P35354).
T1 sequence (P35354 1-604): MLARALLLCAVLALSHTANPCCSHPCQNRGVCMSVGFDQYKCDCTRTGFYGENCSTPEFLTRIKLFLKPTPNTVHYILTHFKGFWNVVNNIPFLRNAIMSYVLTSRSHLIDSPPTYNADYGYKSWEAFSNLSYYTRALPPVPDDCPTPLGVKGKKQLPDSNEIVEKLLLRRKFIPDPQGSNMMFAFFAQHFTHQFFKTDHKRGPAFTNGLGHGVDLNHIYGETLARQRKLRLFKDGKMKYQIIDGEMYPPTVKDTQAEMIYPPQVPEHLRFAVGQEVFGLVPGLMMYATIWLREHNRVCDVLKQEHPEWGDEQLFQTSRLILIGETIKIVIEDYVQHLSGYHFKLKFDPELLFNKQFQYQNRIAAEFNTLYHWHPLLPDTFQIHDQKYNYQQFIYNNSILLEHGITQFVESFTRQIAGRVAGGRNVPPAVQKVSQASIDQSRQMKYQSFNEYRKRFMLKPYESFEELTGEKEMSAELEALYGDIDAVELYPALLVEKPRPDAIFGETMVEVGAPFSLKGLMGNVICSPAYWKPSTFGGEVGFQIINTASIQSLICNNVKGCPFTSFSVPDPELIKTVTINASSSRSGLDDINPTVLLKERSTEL
Kind of assay: LCMS-based COX2 enzymatic inhibition assay (PGE2 quantification). Type of assay: biochemical. More on the design: COX2 2 minutes pge2/pge2d4 area ratio Avg; other: 2 minutes; readout pge2/pge2d4 area ratio; average; COX2 2 minutes pge2/pge2d4 area ratio Avg; LLE; average LLE; COX2 2 minutes pge2 area (counts) Avg; readout pge2 area (counts); other: 2 min; "ovine COX2 (oCOX2), human recombinant COX2 (hCOX2)". To be noted: 2 minutes; for COX2 2 minutes pge2/pge2d4 area ratio Avg. LLE / COX2 2 minutes pge2 area (counts) Avg. LLE: average LLE; for IC50: average. A digest of the protocol:
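Ovine COX-1 (0.1 μg) or human recombinant COX2 (0.2 μg) in 100 mM Tris.HCl pH 8.0 with hematin and epinephrine, preincubated with inhibitor 10 min at 37 °C. Reaction with 5 μM arachidonic acid stopped after 2 min with HCl; PGE2 quantified by LC-MS-MS. IC50 from 12 concentrations in triplicate.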

Where [1] appears, read: readout pge2/pge2d4 area ratio, read-out: COX2 2 minutes pge2/pge2d4 area ratio Avg. IC50.
Setting [2] is: readout pge2 area (counts), read-out: COX2 2 minutes pge2 area (counts) Avg. IC50.
Where [3] appears, read: read-out: COX2 2 minutes pge2/pge2d4 area ratio Avg. IC50 (microM), readout pge2/pge2d4 area ratio.

With `CS(=O)(=O)c1ccc(-c2cncc(SCc3cnco3)n2)cc1` [Compound 226], the “COX2 2 minutes pge2/pge2d4 area ratio Avg. LLE” value (readout pge2/pge2d4 area ratio) is on record as 3.47. Besides, the IC50 is 2.04 µM under setting [1] and 1.79 µM under setting [2]. Also, the “COX2 2 minutes pge2 area (counts) Avg. LLE” value (shortened to “COX2 2 minutes pge2 area”) (readout pge2 area (counts)) is 3.565.
In the case of `CS(=O)(=O)c1ccc(-c2ccc3ncn(Cc4cccs4)c3n2)cc1` [Compound 155], the “COX2 2 minutes pge2/pge2d4 area ratio Avg. LLE” value (readout pge2/pge2d4 area ratio) worked out at 2.321. Further, the IC50 runs as follows: under setting [1], 0.32 µM; under setting [2], 0.317 µM. The “COX2 2 minutes pge2 area” value (readout pge2 area (counts)) was found to be 2.324.
In the case of `CS(=O)(=O)c1ccc(-c2cnc3cnn(Cc4cccs4)c3c2)cc1` [Compound 244], the “COX2 2 minutes pge2/pge2d4 area ratio Avg. LLE” value (readout pge2/pge2d4 area ratio) came out at 1.703. The IC50 under setting [1] turned out to be 3.15 µM.
For `CS(=O)(=O)c1ccc(-n2ncc3ccc(NCc4cccs4)nc32)cc1` [Compound 92], the IC50 reads like this: under setting [1], 0.0686 µM; under setting [2], 0.0584 µM.
For the molecule `CS(=O)(=O)c1ccc(-c2cncc(N3Cc4ccccc4C3)n2)cc1` [Compound 313], the IC50 under setting [3] was 5.2 µM.
As to `CS(=O)(=O)c1ccc(-c2cncc(SC[C@H]3CCCO3)n2)cc1` (single isomer, unassigned) [Compound 154], the “COX2 2 minutes pge2/pge2d4 area ratio Avg. LLE” value (readout pge2/pge2d4 area ratio) is 4.687. The IC50 is, setting by setting: under setting [1], 0.315 µM; under setting [2], 0.295 µM. Also, the “COX2 2 minutes pge2 area” value (readout pge2 area (counts)) stood at 4.726.
Taken in the same sequence, the figures for `CS(=O)(=O)c1ccc(-c2cnc(N)c(NCc3cccs3)n2)cc1` [Compound 165] were 4.592, 0.425 µM, 0.391 µM and 4.629.
In the case of `CS(=O)(=O)c1ccc(-c2cncc(SCc3cocn3)n2)cc1` [Compound 258], the “COX2 2 minutes pge2/pge2d4 area ratio Avg. LLE” value (readout pge2/pge2d4 area ratio) was 3.44. Besides, the IC50 reads like this: under setting [1], 4.1 µM; under setting [2], 3.9 µM. Also, the “COX2 2 minutes pge2 area” value (readout pge2 area (counts)) was determined as 3.462.
For `COc1ncc(OCc2ccoc2)nc1-c1ccc(S(C)(=O)=O)cc1` [Compound 22] the same measures were 5.719, 0.0112 µM, 0.0112 µM and 5.729.
Taken in the same sequence, the figures for `CS(=O)(=O)c1ccc(-c2cncc(NCc3cccs3)n2)nc1` [Compound 127] were 6.121, 0.144 µM, 0.169 µM and 6.077.
For `CS(=O)(=O)c1ccc(-c2cncc(OCc3cncs3)n2)cc1` [Compound 138], the “COX2 2 minutes pge2/pge2d4 area ratio Avg. LLE” value (readout pge2/pge2d4 area ratio) was determined as 4.957. For the same molecule, the IC50 is 0.202 µM under setting [1] and 0.198 µM under setting [2]. Under “readout pge2 area (counts)”, the “COX2 2 minutes pge2 area” value is listed as 4.957.
As for `Cc1ccc(COc2cncc(-c3ccc(S(C)(=O)=O)cc3)n2)s1` [Compound 124], the IC50 by setting is: under setting [1], 0.139 µM; under setting [2], 0.123 µM.
For `CS(=O)(=O)c1ccc(-n2ccc3ccc(Nc4cccnc4)nc32)cc1` [Compound 238] the same measures were 2.66 µM and 3.28 µM.
Turning to `CS(=O)(=O)c1ccc(-c2cncc(OC[C@@H]3CCCO3)n2)cc1` [Compound 275], the “COX2 2 minutes pge2/pge2d4 area ratio Avg. LLE” value (readout pge2/pge2d4 area ratio) is given as 4.054. The “COX2 2 minutes pge2 area” value (readout pge2 area (counts)) was 4.054. In addition, the IC50 under setting [3] came to 5.2 µM.
As to `CS(=O)(=O)c1ccc(-c2cc(NCc3cccs3)cnn2)cc1` [Compound 220], the “COX2 2 minutes pge2/pge2d4 area ratio Avg. LLE” value (readout pge2/pge2d4 area ratio) is reported as 3.784. Also, the IC50 under setting [1] is 1.67 µM and the IC50 under setting [2] came out at 2.09 µM. In addition, where the note is “readout pge2 area (counts)”, the “COX2 2 minutes pge2 area” value is recorded as 3.69.
For `CS(=O)(=O)c1ccc(-c2cnc3ccn(Cc4nccs4)c3n2)cc1` [Compound 176] the same measures were 3.19, 0.532 µM, 0.52 µM and 3.2105.
For `COc1ncc(NCc2cnco2)nc1-c1ccc(S(C)(=O)=O)cc1` [Compound 227] the same measures were 4.384, 2.06 µM, 1.6 µM and 4.493.
As to `CS(=O)(=O)c1ccc(-c2ccc3c(n2)N(Cc2cccs2)CC3)cc1` [Compound 121], the IC50 under setting [1] turned out to be 0.121 µM and the IC50 under setting [2] amounted to 0.124 µM.
`CS(=O)(=O)c1ccc(-c2cncc(NCc3cccs3)c2)cc1` [Compound 79]: under “readout pge2/pge2d4 area ratio”, the “COX2 2 minutes pge2/pge2d4 area ratio Avg. LLE” value was 4.192. Besides, the IC50 runs as follows: under setting [1], 0.0506 µM; under setting [2], 0.0596 µM. For the same molecule, the “COX2 2 minutes pge2 area” value (readout pge2 area (counts)) was determined as 4.109.
For `CS(=O)(=O)c1ccc(-c2cnc3ccn(Cc4cccs4)c3c2)cc1` [Compound 111] the same measures were 2.294, 0.0991 µM, 0.113 µM and 2.242.
Consider `COc1cc(S(C)(=O)=O)ccc1-c1cccc(NCc2ccoc2)n1` [Compound 297], for which, under setting [3], the IC50 was found to be 5.2 µM.
`CS(=O)(=O)c1ccc(-c2cncc(NCc3cnco3)n2)cc1` [Compound 215]: the “COX2 2 minutes pge2/pge2d4 area ratio Avg. LLE” value (readout pge2/pge2d4 area ratio) was 4.859. Also, the IC50 by setting is: under setting [1], 1.53 µM; under setting [2], 1.58 µM. Also, under “readout pge2 area (counts)”, the “COX2 2 minutes pge2 area” value was found to be 4.845.
Consider `CS(=O)(=O)c1ccc(-c2cccc([S@@+]([O-])Cc3cccs3)n2)cc1` [Compound 266], for which, for the setting “readout pge2/pge2d4 area ratio”, the “COX2 2 minutes pge2/pge2d4 area ratio Avg. LLE” value is 2.95. In addition, under setting [1], the IC50 is 4.84 µM. Besides, the “COX2 2 minutes pge2 area” value (readout pge2 area (counts)) amounted to 2.934.
`CS(=O)(=O)c1ccc(-n2ccc3ccc(NC(=O)c4cccs4)nc32)cc1` [Compound 311]: under setting [3], the IC50 came out at 5.2 µM.
As to `Cc1ncc(NCc2cccs2)nc1-c1ccc(S(C)(=O)=O)cc1` [Compound 103], the “COX2 2 minutes pge2/pge2d4 area ratio Avg. LLE” value (readout pge2/pge2d4 area ratio) is listed as 4.751. The IC50 under setting [1] amounted to 0.0888 µM and the IC50 under setting [2] stood at 0.0733 µM. For the same molecule, the “COX2 2 minutes pge2 area” value (readout pge2 area (counts)) was found to be 4.838.
For `COc1ncc(NCc2ccncc2)nc1-c1ccc(S(C)(=O)=O)cc1` [Compound 182] the same measures were 5.042, 0.559 µM, 0.415 µM and 5.147.
For `CS(=O)(=O)c1ccc(-c2cncc(OC[C@H]3CCCS3)n2)cc1` (single isomer, unassigned) [Compound 198] the same measures were 4.116, 0.964 µM, 1.23 µM and 4.04.
Consider `CS(=O)(=O)c1ccc(-n2nnc3ccc(NCc4cccs4)nc32)cc1` [Compound 139], for which the IC50 under setting [1] came to 0.207 µM and the IC50 under setting [2] is 0.219 µM.
As for `CS(=O)(=O)c1ccc(-c2nc(NCc3cccs3)ccc2S(C)(=O)=O)cc1` [Compound 265], for the setting “readout pge2/pge2d4 area ratio”, the “COX2 2 minutes pge2/pge2d4 area ratio Avg. LLE” value amounted to 2.641. The IC50 under setting [1] is 4.81 µM. Besides, the “COX2 2 minutes pge2 area” value (readout pge2 area (counts)) is reported as 2.624.
Turning to `CS(=O)(=O)c1ccc(-c2cccc(NCc3ccon3)n2)cc1` [Compound 150], the “COX2 2 minutes pge2/pge2d4 area ratio Avg. LLE” value (readout pge2/pge2d4 area ratio) was 5.05. The IC50 reads like this: under setting [1], 0.276 µM; under setting [2], 0.249 µM. In addition, the “COX2 2 minutes pge2 area” value (readout pge2 area (counts)) was determined as 5.0953.
In the case of `CS(=O)(=O)c1ccc(-n2ccc3ccc(C(=O)c4cccs4)nc32)cc1` [Compound 151, [1-(4-methylsulfonylphenyl)pyrrolo[2,3-b]pyridin-6-yl]-(2-thienyl)methanone], the IC50 was found to be 0.293 µM under setting [1] and 0.233 µM under setting [2].
For `COc1ncc(NCc2ncco2)nc1-c1ccc(S(C)(=O)=O)cc1` [Compound 236], the “COX2 2 minutes pge2/pge2d4 area ratio Avg. LLE” value (readout pge2/pge2d4 area ratio) is reported as 4.092. For the same molecule, the IC50 runs as follows: under setting [1], 2.54 µM; under setting [2], 2.5 µM. In addition, the “COX2 2 minutes pge2 area” value (readout pge2 area (counts)) turned out to be 4.092.
Consider `CS(=O)(=O)c1ccc(-c2cccc(C[C@H](O)c3cccs3)n2)cc1` [Compound 300], for which the IC50 under setting [3] amounted to 5.2 µM.
Still for that read-out and setting: with `CS(=O)(=O)c1ccc(-c2cnc3cn(Cc4cccs4)nc3c2)cc1` [Compound 317] the figure was 5.2 µM.
Regarding `CS(=O)(=O)c1ccc(-c2nc3cnn(Cc4cccs4)c3[nH]2)cc1` [Compound 256], the IC50 worked out at 4.04 µM under setting [1] and 4.56 µM under setting [2].
